Experimental findings from paper PMC9477868, “Gut bacteria induce oviposition preference through ovipositor recognition in fruit fly” (Communications Biology, 2022) are described below.

The structures appear in SMILES notation.

Assay type in all cases: binding
Experiment [1] addresses T1, Obp56d-2 (Bactrocera dorsalis, UniProt A0ACM8RD04).
T1 construct: gene LOC105221865; recombinant, E. coli Rosetta (DE3), pET-32a(+) vector, designed from CDS; about 29 kDa on SDS-PAGE; anion-exchange purified
T1 sequence (A0ACM8RD04 19-138): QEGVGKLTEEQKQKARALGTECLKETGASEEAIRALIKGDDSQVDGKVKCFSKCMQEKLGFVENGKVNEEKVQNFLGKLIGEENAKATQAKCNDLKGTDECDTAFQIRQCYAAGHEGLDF
The experiment is described as follows: fluorescence titration, microplate reader (ex […] nm). Particulars: 2 uM Obp, 2-16 uM 1-NPN, 50 mM Tris-HCl, pH 7.4; fluorescent probe; one-site fit.

For experiment [2], the target named is T2, Obp56d (Bactrocera dorsalis, UniProt A0A6I9V3V6).
T2 construct: gene LOC105221864; recombinant, E. coli Rosetta (DE3), pET-32a(+) vector, designed from CDS; about 29 kDa on SDS-PAGE; anion-exchange purified
T2 sequence (A0A6I9V3V6 19-138): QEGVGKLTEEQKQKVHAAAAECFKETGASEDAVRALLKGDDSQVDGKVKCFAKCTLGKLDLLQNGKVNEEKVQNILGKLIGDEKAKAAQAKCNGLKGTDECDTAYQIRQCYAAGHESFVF
The description is as above. Particulars: 2 uM Obp, 2-16 uM 1-NPN, 50 mM Tris-HCl, pH 7.4; fluorescent probe; one-site fit.

In experiment [3] the target is T2, Obp56d. As to the kind of experiment: competitive displacement of 1-NPN fluorescence. Particulars: 3-HA 0-16 uM; 2 uM Obp, 50 mM Tris-HCl, pH 7.4; competitive with 1-NPN.
The target of experiment [4] is T1, Obp56d-2. The experiment is described as follows: competitive displacement of 1-NPN fluorescence. To be noted: 3-HA 0-16 uM; 2 uM Obp, 50 mM Tris-HCl, pH 7.4; competitive with 1-NPN.

As to `c1ccc(Nc2cccc3ccccc23)cc1` [1-NPN], the dissociation constant entry at Obp56d-2 [1] is “Then the dissociation constants of the Obp56d and Obp56d-2 were generated”; at Obp56d [2], “Then the dissociation constants of the Obp56d and Obp56d-2 were generated”.

Take `CCC=CCCOC(C)=O` [3-HA]: the “% reduction of relative fluorescence intensity of the Obp/1-NPN complex” value on Obp56d [3] and at Obp56d-2 [4] was > 50% in each case.
